Where a name gives a salt, the structure may show the parent alone.
These compounds were tested on HT29. Settings: 72 h, relative to DMSO, 10 µM, Relative cell viability (%).
Procedure, shortened: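 Cells were exposed to drug for 72 h, then to WST-1 for 2 h at 37 °C, and absorbance was read at 450 nm as viability against DMSO treatment. In the screen, each compound was applied at 10 µM.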
`CCN(C)C(=O)Oc1cccc([C@H](C)N(C)C)c1` [Rivastigmine] was tested, and the “Relative cell viability (%)” value was 88.03%.

Same assay, conditions: 72 h, relative to DMSO; 10 µM
In the case of `CO[C@H]1/C=C/O[C@@]2(C)Oc3c(C)c(O)c4c(O)c(c(/C=N/N5CCN(C6CCCC6)CC5)c(O)c4c3C2=O)NC(=O)/C(C)=C\C=C\[C@H](C)[C@H](O)[C@@H](C)[C@@H](O)[C@@H](C)[C@H](OC(C)=O)[C@@H]1C` [Rifapentine], the “Relative cell viability (%)” value is reported as 69.07%. `CC[C@H](C)C(=O)O[C@H]1CCC=C2C=C[C@H](C)[C@H](CC[C@@H]3C[C@@H](O)CC(=O)O3)[C@H]21` [Mevastatin] was tested, and the “Relative cell viability (%)” value was 86.67%. In the case of `CC(=O)OCC(=O)NCCCOc1cccc(CN2CCCCC2)c1` [Roxatidine Acetate HCl], the “Relative cell viability (%)” value is reported as 111%. With `CN1C(C(=O)Nc2ccccn2)=C(O)c2sc(Cl)cc2S1(=O)=O` [Lornoxicam] the “Relative cell viability (%)” value was 228.6%. In the case of `CCOc1nc2cccc(C(=O)O)c2n1Cc1ccc(-c2ccccc2-c2noc(=O)[nH]2)cc1` [Azilsartan], the “Relative cell viability (%)” value is reported as 73.79%. With `Cn1cnc2c(F)c(Nc3ccc(Br)cc3F)c(C(=O)NOCCO)cc21` [MEK162 (ARRY-162, ARRY-438162)] the “Relative cell viability (%)” value was 36.75%. In the case of `C=C[C@]1(C)C[C@@H](OC(=O)CSC(C)(C)CNC(=O)[C@H](N)C(C)C)[C@]2(C)[C@H](C)CC[C@]3(CCC(=O)[C@H]32)[C@@H](C)[C@@H]1O` [Valnemulin HCl], the “Relative cell viability (%)” value is reported as 68.48%. `CCOC(=O)C1=C[C@]2(CC)CCCN3CCc4c(n1c1ccccc41)[C@@H]32` [Vinpocetine] was tested, and the “Relative cell viability (%)” value was 107.3%. `CC(C)OC(=O)C(C)(C)Oc1ccc(C(=O)c2ccc(Cl)cc2)cc1` [Fenofibrate] was tested, and the “Relative cell viability (%)” value was 74.15%. For `CN1C(=O)CCS(=O)(=O)C1c1ccc(Cl)cc1` (stereo not shown) [Chlormezanone], the “Relative cell viability (%)” value was 142.8%. In the case of `CC1=NN(c2ccccc2)C(=O)C1` [Edaravone], the “Relative cell viability (%)” value is reported as 97.66%. With `CN(C)c1nc(N(C)C)nc(N(C)C)n1` [Altretamine] the “Relative cell viability (%)” value was 57.17%. For `NC(=O)N1CCC(CC(=O)N2CCC([C@H]3c4ncc(Br)cc4CCc4cc(Cl)cc(Br)c43)CC2)CC1` [Lonafarnib], the “Relative cell viability (%)” value was 95.63%. `O=C(O)c1cccnc1` [Nicotinic Acid] was tested, and the “Relative cell viability (%)” value was 70.34%. For `O=C1CC2(CCCC2)CC(=O)N1CCCCN1CCN(c2ncccn2)CC1` [Buspirone HCl], the “Relative cell viability (%)” value was 73.94%. In the case of `Cc1ccc(=O)n(-c2ccccc2)c1` [Pirfenidone], the “Relative cell viability (%)” value is reported as 56.31%. In the case of `CCCN(CCc1cccs1)[C@H]1CCc2c(O)cccc2C1` [Rotigotine], the “Relative cell viability (%)” value is reported as 62.12%. For `CN(C)C(=O)c1cc2cnc(Nc3ccc(N4CCNCC4)cn3)nc2n1C1CCCC1` [LEE011], the “Relative cell viability (%)” value was 66.24%. In the case of `c1ccc(CN(CC2=NCCN2)c2ccccc2)cc1` [Antazoline HCl], the “Relative cell viability (%)” value is reported as 63.94%. For `C[C@]12C=CC(=O)C=C1CC[C@H]1[C@@H]3C[C@@H](O)[C@](O)(C(=O)CO)[C@@]3(C)C[C@H](O)[C@@]12F` [Triamcinolone], the “Relative cell viability (%)” value was 171.8%. In the case of `CN1CCN2c3ncccc3Cc3ccccc3C2C1` (stereo not shown) [Mirtazapine], the “Relative cell viability (%)” value is reported as 177.9%. For `CC(C)N(CCNC(=O)CN1CCCC1=O)C(C)C` [Pramiracetam], the “Relative cell viability (%)” value was 79.61%. For `CCS(=O)(=O)N1CCN(c2ccc(Nc3ncc(C(N)=O)c(NC4CC4)n3)cc2)CC1` [Cerdulatinib (PRT062070, PRT2070)], the “Relative cell viability (%)” value was 36.75%. In the case of `CC(=O)OCC(=O)[C@H]1CC[C@H]2[C@@H]3CCC4=CC(=O)CC[C@]4(C)[C@H]3CC[C@]12C` [Deoxycorticosterone acetate], the “Relative cell viability (%)” value is reported as 81.21%. With `O=C(O)c1ccccc1Nc1cccc(C(F)(F)F)c1` [Flufenamic acid] the “Relative cell viability (%)” value was 80.303%. With `O=C1NC(=O)[C@@H](c2cn3c4c(cccc24)CCC3)[C@@H]1c1c[nH]c2ccccc12` [Tivantinib (ARQ 197)] the “Relative cell viability (%)” value was 27.18%. With `COc1cc(OC)c(/C=C/S(=O)(=O)Cc2ccc(OC)c(NCC(=O)O)c2)c(OC)c1` [Rigosertib (ON-01910)] the “Relative cell viability (%)” value was 4.206%. In the case of `COc1ccc(Cl)c(Nc2nc3ccccc3nc2NS(=O)(=O)c2cccc(NC(=O)C(C)(C)N)c2)c1` [Pilaralisib (XL147)], the “Relative cell viability (%)” value is reported as 48.29%. With `CCCc1nc2c(C)cc(-c3nc4ccccc4n3C)cc2n1Cc1ccc(-c2ccccc2C(=O)O)cc1` [Telmisartan] the “Relative cell viability (%)” value was 47.46%. For `N#Cc1ccccc1-c1cc(-c2ccccn2)cn(-c2ccccc2)c1=O` [Perampanel], the “Relative cell viability (%)” value was 104.7%. For `CCC[S+]([O-])c1ccc2[nH]c(NC(=O)OC)nc2c1` (stereo not shown) [Albendazole Oxide], the “Relative cell viability (%)” value was 65.25%. In the case of `Cc1ccccc1C(OCCN(C)C)c1ccccc1` (stereo not shown) [Orphenadrine Citrate], the “Relative cell viability (%)” value is reported as 102.4%. With `N[C@@H](Cc1cc(I)c(Oc2ccc(O)c(I)c2)c(I)c1)C(=O)O` [Liothyronine Sodium] the “Relative cell viability (%)” value was 85.76%. With `CCN1CCCC1CNC(=O)c1cc(S(=O)(=O)CC)c(N)cc1OC` (stereo not shown) [Amisulpride] the “Relative cell viability (%)” value was 77.41%. In the case of `CN(C)CCc1c[nH]c2ccc(CS(=O)(=O)N3CCCC3)cc12` [Almotriptan Malate], the “Relative cell viability (%)” value is reported as 113.8%. In the case of `C=C(c1ccc(C(=O)O)cc1)c1cc2c(cc1C)C(C)(C)CCC2(C)C` [Bexarotene], the “Relative cell viability (%)” value is reported as 134.4%. With `COc1cc2c(cc1OC)CC(=O)N(CCCN(C)C[C@H]1Cc3cc(OC)c(OC)cc31)CC2` [Ivabradine HCl] the “Relative cell viability (%)” value was 110.8%. With `CCc1cnn2c(NCc3ccc[n+]([O-])c3)cc(N3CCCC[C@H]3CCO)nc12` [Dinaciclib (SCH727965)] the “Relative cell viability (%)” value was 33.01%. `C[C@@H]1CN(c2c(F)c(N)c3c(=O)c(C(=O)O)cn(C4CC4)c3c2F)C[C@H](C)N1` [Sparfloxacin] was tested, and the “Relative cell viability (%)” value was 75.42%. In the case of `CC(C(=O)O)c1ccc(CC2CCCC2=O)cc1` (stereo not shown) [Loxoprofen], the “Relative cell viability (%)” value is reported as 82.91%. In the case of `CO[C@H]1/C=C/O[C@@]2(C)Oc3c(C)c(O)c4c(O)c(c5c(nc6cc(C)ccn65)c4c3C2=O)NC(=O)/C(C)=C\C=C\[C@H](C)[C@H](O)[C@@H](C)[C@@H](O)[C@@H](C)[C@H](OC(C)=O)[C@@H]1C` [Rifaximin], the “Relative cell viability (%)” value is reported as 94.49%. In the case of `CN1CCC(COc2cnc(-c3cccc(Cn4nc(-c5cccc(C#N)c5)ccc4=O)c3)nc2)CC1` [Tepotinib (EMD 1214063)], the “Relative cell viability (%)” value is reported as 11.11%. In the case of `Cc1c(-c2ccnn2C)cc(C(=O)NCc2ccc(S(C)(=O)=O)cn2)c(=O)n1-c1cccc(C(F)(F)F)c1` [Alvelestat (AZD9668)], the “Relative cell viability (%)” value is reported as 116.2%. In the case of `COC1=C(OC)C(=O)C(CCCCCCCCCCO)=C(C)C1=O` [Idebenone], the “Relative cell viability (%)” value is reported as 41.75%. For `CCCCCCCCCCCC[N+](C)(C)CCOc1ccccc1` [Domiphen Bromide], the “Relative cell viability (%)” value was 82.12%. With `OC[C@@H](O)[C@@H](O)[C@H](O)[C@H](O)CO` [D-Mannitol] the “Relative cell viability (%)” value was 114.9%. With `CC[C@H](NC(=O)[C@H](C)NC)C(=O)N1C[C@@H](O)C[C@H]1Cc1c(-c2[nH]c3cc(F)ccc3c2C[C@@H]2C[C@H](O)CN2C(=O)[C@H](CC)NC(=O)[C@H](C)NC)[nH]c2cc(F)ccc12` [Birinapant] the “Relative cell viability (%)” value was 132.9%. For `NC1=NCC2c3ccccc3Cc3ccccc3N12` (stereo not shown) [Epinastine HCl], the “Relative cell viability (%)” value was 78.48%. With `CCCCCCCCCCCCCCCC[N+](C)(C)C` [Cetrimonium Bromide (CTAB)] the “Relative cell viability (%)” value was 18.48%. With `CC[C@@H]1/C=C(\C)C[C@H](C)C[C@H](OC)[C@H]2O[C@@](O)(C(=O)C(=O)N3CCCC[C@H]3C(=O)O[C@H](/C(C)=C/[C@@H]3CC[C@H](Cl)[C@H](OC)C3)[C@H](C)[C@@H](O)CC1=O)[C@H](C)C[C@@H]2OC` [Pimecrolimus] the “Relative cell viability (%)” value was 64.96%. For `CC[C@H]1OC(=O)[C@H](C)[C@@H](O[C@H]2C[C@@](C)(OC)[C@@H](O)[C@H](C)O2)[C@H](C)[C@@H](O[C@@H]2O[C@H](C)C[C@H](N(C)C)[C@H]2O)[C@](C)(O)C[C@@H](C)CN(C)[C@H](C)[C@@H](O)[C@]1(C)O` [Azithromycin], the “Relative cell viability (%)” value was 33.47%. For `O=c1ccc2ccccc2o1` [Coumarin], the “Relative cell viability (%)” value was 71.21%. With `Cc1cncc(CN2CCC(=C3c4ccc(Cl)cc4CCc4cccnc43)CC2)c1` [Rupatadine Fumarate] the “Relative cell viability (%)” value was 83.98%. `CS(=O)(=O)c1ccc([C@@H](O)[C@@H](CF)NC(=O)C(Cl)Cl)cc1` [Florfenicol] was tested, and the “Relative cell viability (%)” value was 85.76%. `COc1ccccc1OCC(O)COC(N)=O` (stereo not shown) [Methocarbamol] was tested, and the “Relative cell viability (%)” value was 46.19%. `NC(=O)OCC(COC(N)=O)c1ccccc1` [Felbamate] was tested, and the “Relative cell viability (%)” value was 69.63%. In the case of `Cn1c(=O)cc(N2CCC[C@@H](N)C2)n(Cc2cc(F)ccc2C#N)c1=O` [Trelagliptin], the “Relative cell viability (%)” value is reported as 63.68%. With `CCCC(=O)OCOC(=O)C1=C(C)NC(C)=C(C(=O)OC)C1c1cccc(Cl)c1Cl` (stereo not shown) [Clevidipine Butyrate] the “Relative cell viability (%)” value was 112%. `Cc1ccc2c(Cl)cc(Cl)c(O)c2n1` [Chlorquinaldol] was tested, and the “Relative cell viability (%)” value was 41.21%.

Same assay, conditions: ht29 cells, 72 h, 10 µM
With `CC[C@H]1OC(=O)[C@H](C)[C@@H](O[C@H]2C[C@@](C)(OC)[C@@H](O)[C@H](C)O2)[C@H](C)[C@@H](O[C@@H]2O[C@H](C)C[C@H](N(C)C)[C@H]2O)[C@](C)(O)C[C@@H](C)[C@@H]2N[C@@H](COCCOC)O[C@H]([C@H]2C)[C@]1(C)O` [Dirithromycin] the “Relative cell viability (%)” value was 84.85%.
